Source: US6479265B1, “Catalytic antibodies which hydrolyze primary amides and methods for eliciting and use of such antibodies” (Igen International, Inc., priority 1993, dated 2002)

Tested on: 13D11
Test: Inhibition of hydrolysis of 10 by 13D11 (secondary screening)
Format: biochemical, mice
Conditions: buffer tried as an alternative to Tris
Procedure: Antibody 13D11 (14.5 μM) was re-screened for activity toward 10 (nominally 500 μM) in the absence and presence of 63 μM (RT-2 hapten)(D/L mixture).
Until this point, 13D11 antibody had been purified by Protein A and DEAE chromatography. To determine whether the activity toward 10 was due to a contaminating enzyme, 13D11 was further purified on a Mono Q column (Pharmacia) by FPLC.

O=S(=O)(O)CCNC1CCCCC1 [CHES] was tested. Which “inhibition of the hydrolysis of 10 by 13D11” value did it give?
The value was “found to inhibit”.
